Experiment [1] deals with T1, Human D2R (Homo sapiens, UniProt P14416).
T1 construct: expressed in transfected cells; host or cells: CHO-D2R #S20 cell line (membranes)
Put plainly: D2R competition binding ([3H]-spiperone displacement). The settings on record: radioligand displacement, mean±SEM of three experiments in duplicate; read-out: D2R binding affinity Ki. As to the method: Human D2R competition binding experiments w ere carried out in polypropylene 96-well plates. Each well contained 10 µg of membranes from a CHO-D2R #S20 cell line (protein concentration of 3241 µg/ml), 0.4 nM [3H]-spiperone (80. 2 Ci/mmol, 1 mCi/ml, Perkin […]
The reaction mixture (250 µl/well) was incubated at 25°C for 120 min , after which 200 µL was transferred to a GF/C 96 -well plate (Millipore, Madrid, Spain) pretreated with 0. 5% of PEI and treated with binding buffer (50 mM Tris-HCl, 1 mM EDTA, 5 mM MgCl2, 5 mM KCl, 120 mM NaCl, pH=7.4). The […]
samples were filtered and washed four times with 250 µl wash buffer (50 mM Tris-HCl, 0.9% NaCl, pH=7.4) before measuring in a microplate beta scintillation counter (Microbeta Trilux, PerkinElmer, Madrid, Spain). Three independent exp eriments were carried out to calculate Ki values (n=3). […]
A general note: Loss of bound radioactivity is the signal in a displacement assay; it reports binding, not function.

Experiment [2] concerns the target T1, Human D2R. Nature of the experiment: D2R functional cAMP (HTRF) assay in CHO-D2 #S20 cells. It is filed as cell-based. To be noted: for EC50: cAMP HTRF, CHO-D2 cells, forskolin 10 µM, mean±SEM n=3; for Emax: relative to the maximal effect of dopamine. The procedure:
KB=I C50/(1+([NECA]/EC50 NECA)).
Functional assays for the human D2R were carried out in a CHO-D2 #S20 cell line. 5,000 cells were seed ed in 30 µl of Opti-ME M (Invitrogen 11058) and 500µM IBMX (Sigma 17018) on a 96-well isoplate (PerkinElmer 6005030). The studied compounds wer e then added and incubated for 10 min at 37 °C with gentle stirring (150 rpm). Then, 10 µM […]
forskolin (Sigma 17018) was added and incubated for 5 min at 37 °C with gentle stirring (150 rpm). Reagents (#CISBIO 62AM4PEC) were added and, after incubation for 60 min at rt with gentle stirring (90 rpm) and protected from light, homogeneous time resolved fluorescence (HTRF, λEx: 320 nm; λEm: 620-665 nm) from each well was measured using a Tecan Infinite M1000 Pro. Data were normalized to the maximum effect of dopamine. EC50 and Ema x values were obtained after fitting the d ata to a four -parameter logistic equatio n using Prism V2. 1 (Graph Pad Inc, Chicago, USA) . […]

Experiment [3] addresses T2, Human A2AAR (Homo sapiens, UniProt P29274). Nature of the experiment: A2AAR functional assay, inhibition of NECA-elicited cAMP production in CHO-A2A cells. The settings on record: mean±SEM n=3. Type of experiment: cell-based. More on the design: expressed in transfected cells. As to the method:
Functional assays. For the human A2AAR, functional experiments measuring cAMP production were carried out in CHO-A2A cell line. The day before the assay, the cells were seeded on a 96-well culture plate (Falcon 353072). The cells were washed with wash buffer (Dulbecco’s modified eagle’s medium nutrient mixture F-12 ham (Sigma D8062), 25 mM Hepes; pH=7.4). Wash buffer was then replaced by incubation buffer (Dulbecco’s modified eagle’s medium nutrient mixture F-12 ham (Sigma D8062), 25 mM Hepes, 20 µM Rolipram, pH=7.4). The studied compounds wer e added and incubated at 37 °C for 15 min. After incubation, NECA (Sigma E2387) was added in several concentrations and incubated at 37 °C for 15 min. After incubation, the amount of cAMP was determined using the cAMP Biotrak Enzymeimmunoassay (EIA) System Kit (GE Healthcare RPN225). Data were adjusted to non-linear fitting by using Prism V2.1 (GraphPad Inc, Chicago USA). K B values were calculated from the IC50 values obtained for each compound by using the formula:
KB=I C50/(1+([NECA]/EC50 NECA)). […]
Background: cAMP levels reflect the balance of adenylyl cyclase and phosphodiesterase activity.

Experiment [4] has as its target T2, Human A2AAR. Put plainly: A2AAR competition binding ([3H]-ZM241385 displacement). More on the design: expressed in transfected cells; host or cells: HeLa-A2AAR cell line (membranes). The settings on record: for Ki: radioligand displacement, mean±SEM of three experiments in duplicate, read-out: A2AAR binding affinity Ki. As to the method: Binding assays. Human A2AAR competition binding experiments were carried out in multiscreen GF/C 96-well plates (Millipore, Madrid, Spain) pretreated with binding buffer (50 mM Tris-HCl, 1 mM EDTA, 10 mM MgCl2, 2 U/ml adenosine deaminase, pH=7.4).
Each well contained 5 µg of membranes from a He l a-A2AAR cell line (protein concentration […]
compound studied. Non-specific binding was determined in the presence of 50 µM NE C A (Sigma E2387). The reaction mixture (200 µl/well) was incubated at 25 °C for 30 min, after which it was filtered and washed four times with 250 µl wash buffer (50 mM Tris -HCl, 1 mM EDTA, 10 mM MgCl 2, pH=7. 4) before measuring in a microplate beta scintillation counter (Microbeta Trilux, PerkinElmer, Madrid, Spain). Three independent experiments were carried out to calculate K i values (n=3). […]

Experiment [5] concerns unilaterally 6-OHDA lesioned rats. Put plainly: Rotation test in unilaterally 6-OHDA lesioned rats (model of Parkinsonism). It is filed as in vivo. The settings on record: apomorphine 1 mg/kg IP, 6-OHDA lesioned rats. As to the method:
Evaluation of compound 30 in rodent model of Parkinsonism. Male Sprague Dawley rats (150-200 g) were housed in air-conditioned rooms (12h dark/light cycle) at 20°C and a humidity of 53%. Experiments were performed in agreement with the European Communities Council Directive of 24 November 1986 (86/609/EEC) on the ethical use of animals and were approved by the local ethical committee (Stockholm North Ethical Committee, N105/16). Rats were anesthetized with ketamine (100 mg/kg, IP; Intervet)/xylazine (5 mg/kg, IP; Bayer, Kiel, Germany), pretreated with desipramine (25 mg/kg, IP; Sigma, St Louis, MO, USA)/pargyline (5 mg/kg, IP; Sigma), placed in a stereotaxi c instrument and injected with 6-OHDA (2.5 µl of a 5mg/ml solution; Sigma) into the median forebrain bundle (MFB) of the right hemisphere (AP -2.8 mm, ML -2.0 mm and V -9.0 mm). Two weeks after the unilateral 6-OHDA lesion, rats were injected with apomorphine (1 mg/kg, IP; Sigma) and their contralateral rotations were measured to determine the degree of nigrostriatal denervation. Four weeks after surgery, rats that were divided into two group according to the number of apomorphine-induced rotations. The rats were treated either with DMSO(17%)/saline (n=6) or compound 30 (n=7, 24 mg/kg, IP) dissolved in DMSO(17%)/saline. The number of rotations was calculated automatically with Noldus EthoVision XT11. 5 Software for 30 min following the drug administration. The two […]
groups were then compared by using a Mann-Whitney test. A second set of independent experiments using a new set of rats were carried out using the same protocol to assess the involvement of the D2R in the observed effect. In this case, rats were divided into four groups according to the number of apomorphine-induced rotations. The rats were treated with either DMSO(17%)/saline (n=6), raclopride (n=7, 2mg/kg, IP) dissolved in DMSO(17%)/saline, compound 30 (n=7, 24 mg/kg, IP) dissolved in DMSO(17%)/saline or the combination of raclopride (30 min pretreatment) and compound 30 (n=7). The rotation test was then performed for 30 min. […]

As usually defined, the Ki is the dissociation constant of the complex between target and ligand, obtained from inhibition or displacement. By EC50 is commonly meant the concentration that produces a half-maximal response. Higher therefore signals a less potent agent. By Emax is commonly meant the greatest response seen or fitted, relative to the assay's reference.

T2 sequence (P29274 whole entry): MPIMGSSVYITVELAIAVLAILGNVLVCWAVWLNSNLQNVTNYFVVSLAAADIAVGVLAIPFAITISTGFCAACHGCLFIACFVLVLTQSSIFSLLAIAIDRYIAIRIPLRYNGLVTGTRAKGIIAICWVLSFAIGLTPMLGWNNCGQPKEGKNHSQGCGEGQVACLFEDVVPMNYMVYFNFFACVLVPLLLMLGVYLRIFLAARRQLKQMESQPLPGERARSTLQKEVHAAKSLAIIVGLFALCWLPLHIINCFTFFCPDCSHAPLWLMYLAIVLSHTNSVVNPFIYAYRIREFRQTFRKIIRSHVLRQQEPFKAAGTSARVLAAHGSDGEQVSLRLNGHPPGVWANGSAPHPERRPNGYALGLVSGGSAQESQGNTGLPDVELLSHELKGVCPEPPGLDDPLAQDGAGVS
T1 sequence (P14416 whole entry): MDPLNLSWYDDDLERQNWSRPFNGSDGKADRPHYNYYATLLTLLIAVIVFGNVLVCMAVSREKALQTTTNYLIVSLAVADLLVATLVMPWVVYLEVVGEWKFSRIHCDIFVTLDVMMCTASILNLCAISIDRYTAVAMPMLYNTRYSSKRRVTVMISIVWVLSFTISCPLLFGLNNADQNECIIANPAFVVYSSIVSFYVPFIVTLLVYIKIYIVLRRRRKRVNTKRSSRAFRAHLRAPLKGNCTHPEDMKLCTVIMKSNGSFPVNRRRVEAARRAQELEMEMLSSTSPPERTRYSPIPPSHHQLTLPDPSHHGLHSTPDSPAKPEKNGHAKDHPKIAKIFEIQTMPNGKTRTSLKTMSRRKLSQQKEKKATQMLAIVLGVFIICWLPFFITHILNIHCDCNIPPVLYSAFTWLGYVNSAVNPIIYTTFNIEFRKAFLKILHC

Consider `CCCN(CCCCC(=O)Nc1nc2c(OC)ccc(C)c2s1)C1Cc2ccccc2C1` [Compound 29], for which the Ki came out at 670 ± 70 nM at Human D2R [1] and 460 ± 40 nM at Human A2AAR [4]. For the same molecule, the response at Human D2R [2] was half-maximal at 980 ± 10 nM (EC50). Further, the maximal response (Emax) at Human D2R [2] is 105 ± 5%. At Human A2AAR [3], this molecule displayed a Kb of 1900 ± 700 nM.
In the case of `CN(CCCCC(=O)Nc1nc2c(Br)cccc2s1)C1Cc2ccccc2C1` [Compound 20], the Ki was 340 ± 30 nM on Human D2R [1] and 190 ± 30 nM at Human A2AAR [4]. In addition, the EC50 at Human D2R [2] was found to be 1500 ± 20 nM. At Human D2R [2], this molecule registered an Emax of 62 ± 9%. The Kb at Human A2AAR [3] is 320 ± 30 nM. Moreover, on Human A2AAR [4] (relative to 2), the “improvement of A2AAR affinity over compound 2” value was greater than 6 fold.
For `CN1CCc2cccc3c2[C@H]1Cc1ccc(O)c(O)c1-3` [apomorphine, reference compound], the “rotational behaviour induced by control D2R agonist” value in experiment [5] is recorded as “contralateral rotational behaviour”.

Values taken from article PMC8456950, “Structure‐Guided Design of G‐Protein‐Coupled Receptor Polypharmacology” (Angewandte Chemie (International Ed. in English), 2021).
